Measured values reported in ChEMBL document CHEMBL5584312, “Insight into the Interaction of Humulus lupulus L. Specialized Metabolites and Gastrointestinal Bitter Taste Receptors: In Vitro Study in STC-1 Cells and Molecular Docking” (J Nat Prod, 2024).
In brackets after ≈: the same amount, converted by molar mass. Activity calls are given as the source filed them. No cut-off for these calls is given here.

Tests used:
STC-1 [1] = test: Anti-obesity activity in mouse STC-1 cells assessed as increase in Tas2r120 mRNA expression level at 5 to 10 ug/ml incubated for 2 hrs by RT-qPCR analysis; assay type: functional, cell-based; details: dose 5-10 µg/ml
STC-1 [2] = test: Anti-obesity activity in mouse STC-1 cells assessed as increase in CCK secretion at 10 ug/ml incubated for 120 mins by EIA; assay type: functional, cell-based; details: dose 10.0 µg/ml
STC-1 [3] = test: Anti-obesity activity in mouse STC-1 cells assessed as increase in Tas2r119 mRNA expression level at 5 to 10 ug/ml incubated for 2 hrs by RT-qPCR analysis; assay type: functional, cell-based; details: dose 5-10 µg/ml
[4] = Cytotoxicity against mouse STC-1 cells assessed as reduction in cell viability at 5 to 10 ug/ml after 2 to 24 hrs by MTT assay; assay type: toxicity, cell-based; details: dose lower 5 µg/ml, time lower 2 hrs, dose upper 10 µg/ml, time upper 24 hrs
STC-1 [5] = test: Anti-obesity activity in mouse STC-1 cells assessed as increase in Tas2r138 mRNA expression level at 5 to 10 ug/ml incubated for 2 hrs by RT-qPCR analysis; assay type: functional, cell-based; details: dose 5-10 µg/ml
STC-1 [6] = test: Anti-obesity activity in mouse STC-1 cells assessed as increase in GLP-1 secretion at 10 ug/ml incubated for 120 mins by ELISA; assay type: functional, cell-based; details: dose 10.0 µg/ml
STC-1 [7] = test: Agonist activity at Tas2r in mouse STC-1 cells assessed as increase in intracellular calcium level measured every 10 sec for 5 mins by Fluo-4-AM dye based fluorescence analysis; assay type: cell-based; details: filed as agonist, dose 5-10 µg/ml
STC-1 [8] = test: Anti-obesity activity in mouse STC-1 cells assessed as increase in Tas2r105 mRNA expression level at 5 to 10 ug/ml incubated for 2 hrs by RT-qPCR analysis; assay type: functional, cell-based; details: dose 5-10 µg/ml
STC-1 [9] = test: Anti-obesity activity in mouse STC-1 cells assessed as increase in […] mRNA expression level at 5 to 10 ug/ml incubated for 2 hrs by RT-qPCR analysis; assay type: functional, cell-based; details: dose 5-10 µg/ml
[10] = Cytotoxicity against mouse STC-1 cells assessed as reduction in cell viability at 50 ug/ml after 2 to 24 hrs by MTT assay; assay type: toxicity, cell-based; details: time 2-24 hrs, dose 50 µg/ml
[11] = Anti-obesity activity in mouse STC-1 cells assessed as GLP-1 secretion at 5 ug/ml incubated for 120 mins by ELISA (reference value: 13.29 +/- 1.3 pg/ml); assay type: functional; details: dose 5 µg/ml, 2 h
[12] = Cytotoxicity against mouse STC-1 cells assessed as reduction in cell viability after 2 hrs by MTT assay; assay type: toxicity, cell-based
[13] = Anti-obesity activity in mouse STC-1 cells assessed as increase in GLP-1 secretion by measuring fold change at 5 to 10 ug/ml incubated for 120 mins by ELISA; assay type: functional; details: dose 5-10 µg/ml, 2 h
[14] = Cytotoxicity against mouse STC-1 cells assessed as reduction in cell viability after 24 hrs by MTT assay; assay type: toxicity, cell-based
[15] = Cytotoxicity against mouse STC-1 cells assessed as cell viability at 10 ug/ml after 24 hrs by MTT assay relative to control; assay type: toxicity, cell-based; details: at 10 µg/mL, read-out: Activity
STC-1 [16] = test: Anti-obesity activity in mouse STC-1 cells assessed as increase in GLP-1 secretion incubated for 120 mins by ELISA; assay type: functional, cell-based; details: dose 5-10 µg/ml
[17] = Anti-obesity activity in mouse STC-1 cells assessed as GLP-1 secretion at 10 ug/ml incubated for 120 mins by ELISA (reference value: 13.29 +/- 1.3 pg/ml); assay type: functional; details: dose 10 µg/ml, 2 h
STC-1 [18] = test: Anti-obesity activity in mouse STC-1 cells assessed as increase in GLP-1 secretion at 5 to 10 ug/ml incubated for 120 mins by ELISA; assay type: functional, cell-based; details: dose 5-10 µg/ml
[19] = Cytotoxicity against mouse STC-1 cells assessed as reduction in cell viability at 5 to 50 ug/ml after 2 to 24 hrs by MTT assay; assay type: toxicity, cell-based; details: dose lower 5 µg/ml, time lower 2 hrs, dose upper 50 µg/ml, time upper 24 hrs

SMILES | Activity (STC-1 [1]) | Activity (STC-1 [2]) | Activity (STC-1 [3]) | Activity [4] | Activity (STC-1 [5]) | Activity (STC-1 [6]) | Activity (STC-1 [7]) | Activity (STC-1 [8]) | Activity (STC-1 [9]) | Activity [10] | Activity [11] | IC50 at 2 h [12] | fold change (FC) [13] | IC50 at 24 h [14] | viability at 24 h, 10 ug/ml [15] | Activity (STC-1 [16]) | Activity [17] | Activity (STC-1 [18]) | Activity [19]
CC(C)=CCC1=C(O)C(C(=O)C(C)C)=C(O)C(CC=C(C)C)(CC=C(C)C)C1=O | Active | Active | Active | Non-Toxic | Active | Active | Dose-Dependent Effect | Active | Active |  |  |  |  |  |  |  |  |  | 
COc1cc(O)c(CC=C(C)C)c(O)c1C(=O)/C=C/c1ccc(O)cc1 [XANTHOHUMOL] |  | Active |  |  | Active |  | Dose-Dependent Effect |  |  | Toxic | 20.39 pg/mL | 35.3 µg/mL (≈ 99.6 µM) | ~2 | 8 µg/mL (≈ 22.6 µM) | 35% | Dose-Dependent Effect | 28.39 pg/mL |  | 
CC(C)=CCC1=C(O)[C@@](O)(CC=C(C)C)C(=O)C(C(=O)C(C)C)=C1O |  |  |  |  | Active |  | Dose-Dependent Effect |  | Active |  |  |  |  |  |  |  |  | inactive | Non-Toxic
